Measured values: patent US10058559B2, “Treatment or prevention of an intestinal disease or disorder” (The United States of America, as represented by the …, priority 2014, dated 2018)
Read-outs that look alike come from different tables or passages of the source.

What was measured:
[1] = in vivo; cited from earlier work
187 kinases = details: cited from earlier work
[2] = test system: LRRK2 Ser910 and Ser935 phosphorylation; details: in vitro; cited from earlier work
[3] = test system: panel of 460 other kinases; details: cited from earlier work
[4] = test system: LRRK2 Ser910 and Ser935 phosphorylation; details: in peripheral tissues in vivo; cited from earlier work
LRRK2 kinase = LRRK2 kinase (Homo sapiens, UniProt Q5S007); details: previously reported; cited from earlier work
[5] = cited from earlier work
LRRK2 phosphorylation = details: mice, 30 mg/kg to 50 mg/kg i.p., in vivo; cited from earlier work
[6] = test system: panel of 136 other kinases; details: cited from earlier work
BMDC from LRRK2 Tg mice [7] = assay: ZymD-induced cytokine production in BMDC from LRRK2 Tg mice; assay type: cell-based; details: for ZymD-induced cytokine production: FIG. 5a and 5b
Source text: Since several of the candidate susceptibility genes in IBD (e.g., NOD2 and […]) are likely to be causing disease via an abnormal innate immune response, it was reasoned that increased LRRK2 expression was leading to an enhanced inflammatory response initiated by a Pathogen Associated Molecular Patterns (PAMPs) in the gastrointestinal environment.
Furthermore, in rat microglia, LRRK2 inhibitors block TLR4-induced TNF-a and iNOS production. Based on these findings, whether LRRK2 inhibition can serve as a therapeutic target in IBD was investigated. First, ZymD-induced cytokine production in BMDC from LRRK2 Tg mice in the presence or absence of two LRRK2 inhibitors, LRRK2-IN-1 and CZC54252.

[8] = test system: human BMDC derived from Crohn's disease peripheral blood; assay: ZymD-induced TNF-alpha production in human BMDC derived from Crohn's disease peripheral blood; assay type: cell-based; details: human cells
DSS-colitis = assay: DSS (dextran-sulfate)-colitis in mice; assay type: in vivo
Source text: In initial studies to evaluate global LRRK2 function in bowel inflammation, LRRK2-Tg mice (as well as LRRK2 KO mice) were subjected to DSS (dextran-sulfate)-colitis. […] In contrast, DSS-colitis in LRRK2 KO mice was slightly less severe than in control mice (FIG. 2a and FIG. 2b). This latter result differs from that reported by Liu et al. who found increased severity of DSS colitis in LRRK2 KO mice. This discrepancy is likely due to differences in the control mice used in the two studies: the experiments described herein used control mice that had been back-crossed for 9 generations, were housed in the same facility and exposed to the same microbiota. These studies of DSS-colitis thus indicate that increased expression of LRRK2 leads to an increased inflammatory response in experimental colitis.

BMDC from LRRK2 Tg mice [9] = assay: autophagy (Western blotting, LC3 puncta) in M. leprae- and ZymD-stimulated BMDC from LRRK2 Tg mice; assay type: cell-based
[10] = ZymD-induced, BMDC from LRRK2 Tg mice

Sequence of LRRK2 kinase (Q5S007 whole entry, species assumed): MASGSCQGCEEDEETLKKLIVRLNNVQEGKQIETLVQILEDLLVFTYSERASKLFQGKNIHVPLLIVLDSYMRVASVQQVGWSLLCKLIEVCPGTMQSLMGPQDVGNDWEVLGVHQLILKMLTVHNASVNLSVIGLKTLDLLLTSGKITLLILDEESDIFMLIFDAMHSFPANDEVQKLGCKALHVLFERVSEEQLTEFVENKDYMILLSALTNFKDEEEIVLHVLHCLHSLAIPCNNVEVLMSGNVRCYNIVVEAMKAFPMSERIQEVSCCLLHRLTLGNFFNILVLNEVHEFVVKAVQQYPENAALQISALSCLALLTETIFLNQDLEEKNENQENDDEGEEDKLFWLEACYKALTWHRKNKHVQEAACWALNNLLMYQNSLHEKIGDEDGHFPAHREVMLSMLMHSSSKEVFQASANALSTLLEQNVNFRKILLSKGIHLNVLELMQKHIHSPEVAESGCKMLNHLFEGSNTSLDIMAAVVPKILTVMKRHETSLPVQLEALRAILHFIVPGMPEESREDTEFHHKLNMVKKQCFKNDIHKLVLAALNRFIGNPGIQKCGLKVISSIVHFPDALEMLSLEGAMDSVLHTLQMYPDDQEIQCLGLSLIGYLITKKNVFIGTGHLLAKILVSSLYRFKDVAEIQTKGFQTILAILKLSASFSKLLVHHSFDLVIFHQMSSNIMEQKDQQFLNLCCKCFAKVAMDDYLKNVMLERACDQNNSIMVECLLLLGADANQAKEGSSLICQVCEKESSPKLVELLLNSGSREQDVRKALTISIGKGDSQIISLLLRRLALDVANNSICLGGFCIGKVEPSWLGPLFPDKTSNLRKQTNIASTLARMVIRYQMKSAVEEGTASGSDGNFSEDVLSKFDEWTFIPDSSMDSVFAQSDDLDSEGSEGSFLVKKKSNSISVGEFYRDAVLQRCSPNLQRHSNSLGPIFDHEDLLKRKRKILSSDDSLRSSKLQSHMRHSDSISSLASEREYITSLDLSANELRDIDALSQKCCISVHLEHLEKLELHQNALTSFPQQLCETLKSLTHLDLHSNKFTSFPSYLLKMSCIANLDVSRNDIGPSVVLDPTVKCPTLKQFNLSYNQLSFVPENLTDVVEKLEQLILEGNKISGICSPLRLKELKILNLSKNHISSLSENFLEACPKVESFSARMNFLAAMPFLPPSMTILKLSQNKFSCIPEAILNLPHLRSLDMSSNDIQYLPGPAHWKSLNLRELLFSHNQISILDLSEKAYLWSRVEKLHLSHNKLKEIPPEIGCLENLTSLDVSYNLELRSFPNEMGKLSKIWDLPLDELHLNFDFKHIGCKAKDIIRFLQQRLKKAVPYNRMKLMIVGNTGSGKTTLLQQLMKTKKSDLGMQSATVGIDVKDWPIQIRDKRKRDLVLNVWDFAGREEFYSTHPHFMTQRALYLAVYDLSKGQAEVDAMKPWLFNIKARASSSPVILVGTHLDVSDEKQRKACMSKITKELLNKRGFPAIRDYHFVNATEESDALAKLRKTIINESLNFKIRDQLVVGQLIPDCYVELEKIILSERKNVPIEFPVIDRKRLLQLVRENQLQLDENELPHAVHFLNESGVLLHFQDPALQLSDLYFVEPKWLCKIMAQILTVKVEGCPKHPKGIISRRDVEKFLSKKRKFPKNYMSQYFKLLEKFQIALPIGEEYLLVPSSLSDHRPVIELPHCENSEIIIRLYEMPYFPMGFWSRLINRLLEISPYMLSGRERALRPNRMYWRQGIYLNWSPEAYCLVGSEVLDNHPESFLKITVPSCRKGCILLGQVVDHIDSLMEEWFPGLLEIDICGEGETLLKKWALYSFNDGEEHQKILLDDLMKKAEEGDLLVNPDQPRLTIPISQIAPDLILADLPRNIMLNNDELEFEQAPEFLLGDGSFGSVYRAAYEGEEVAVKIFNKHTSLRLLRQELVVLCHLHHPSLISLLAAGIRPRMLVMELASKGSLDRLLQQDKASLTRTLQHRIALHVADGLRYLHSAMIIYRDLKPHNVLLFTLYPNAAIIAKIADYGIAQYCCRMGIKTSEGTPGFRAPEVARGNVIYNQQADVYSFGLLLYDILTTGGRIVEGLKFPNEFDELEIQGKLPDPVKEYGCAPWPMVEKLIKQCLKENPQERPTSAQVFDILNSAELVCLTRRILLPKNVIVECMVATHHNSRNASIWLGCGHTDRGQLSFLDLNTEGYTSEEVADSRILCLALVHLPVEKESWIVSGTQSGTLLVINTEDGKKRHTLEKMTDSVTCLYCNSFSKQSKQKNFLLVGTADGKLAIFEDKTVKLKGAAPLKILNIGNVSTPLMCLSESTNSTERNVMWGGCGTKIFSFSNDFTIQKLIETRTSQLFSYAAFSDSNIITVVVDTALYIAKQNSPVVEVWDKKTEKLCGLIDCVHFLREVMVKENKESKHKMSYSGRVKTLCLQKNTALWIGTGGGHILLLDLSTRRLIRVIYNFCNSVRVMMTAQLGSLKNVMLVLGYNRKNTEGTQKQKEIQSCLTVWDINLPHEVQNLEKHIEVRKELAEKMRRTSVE

For CCNc1nc(Nc2cc(F)c(C(=O)N3CCOCC3)cc2OC)ncc1C(F)(F)F [GNE-7915, (4-((4-(ethylamino)-5-(trifluoromethyl)pyrimidin-2-yl)amino)-2-fluoro-5-methoxyphenyl)(morpholino)methanone], the brain penetration [1] is listed as “brain-penetrant” and the “selectivity (kinases)” value (187 kinases) is listed as 1/187.
For O=C(Nc1cccnc1)c1cc(-c2ccnc(F)c2)ccc1OCc1ccccc1 [GSK2578215A, 5-(2-Fluoro-4-pyridinyl)-2-(phenylmethoxy)-N-3-pyridinylbenzamide], the “Ser910 and Ser935 phosphorylation” value [2] is listed as “blocks”, the brain penetration [1] is listed as “brain penetrant” and the “selectivity for LRRK2 against a panel of 460 other kinases” value [3] is listed as “displays selectivity for LRRK2”. For the same compound, the “Ser910 and Ser935 phosphorylation” value [4] was “blocks”.
In the case of O=C1Nc2ccc(I)cc2/C1=C/c1cc(Br)c(O)c(Br)c1 [GW5074], the “inhibitory activities of LRRK2 kinase” value (LRRK2 kinase) is listed as “inhibitory activities”.
For O=S(=O)(NCCNC/C=C/c1ccc(Br)cc1)c1cccc2cnccc12 [H-89], the “inhibitory activities of LRRK2 kinase” value (LRRK2 kinase) is given as “inhibitory activities”.
For CNc1nc(Nc2ccc(C(=O)N3CCOCC3)cc2OC)ncc1Cl [HG-10-102-01, (4-(5-Chloro-4-(methylamino)pyrimidin-2-ylamino)-3-methoxyphenyl)(morpholino)methanone], the cell permeability [5] is given as “cell-permeable”, the “blood-brain-barrier crossing for LRRK2 phosphorylation inhibition” value (LRRK2 phosphorylation) is given as “can cross the blood-brain-barrier” and the “activity toward a panel of 136 other kinases” value [6] is given as “little activity”.
In the case of O=C1Nc2ccccc2/C1=C1/Nc2ccccc2/C1=N\O [Indirubin-3-monoxime], the “inhibitory activities of LRRK2 kinase” value (LRRK2 kinase) is listed as “inhibitory activities”.
In the case of COc1cc(C(=O)N2CCC(N3CCN(C)CC3)CC2)ccc1Nc1ncc2c(n1)N(C)c1ccccc1C(=O)N2C [LRRK2-IN-1, 5,11-Dihydro-2-[[2-methoxy-4-[[4-(4-methyl-1-piperazinyl)-1-piperidinyl]carbonyl]phenyl]amino]-5,11-dimethyl-6H-pyrimido[4,5-b][1,4]benzodiazepin-6-one], the ZymD-induced cytokine production (BMDC from LRRK2 Tg mice [7]; BMDC from LRRK2 Tg mice) is reported as “greatly reduced”, the “inhibition of TNF-alpha, dose dependence” value (BMDC from LRRK2 Tg mice [7]; [10]) is reported as “dose dependent” and the “production of pro-inflammatory cytokine mRNAs (TNF-alpha, TL1A, IL-23p19, IL-6 and IL-1beta mRNAs)” value (BMDC from LRRK2 Tg mice [7]; [10]) is reported as “suppressed”. For the same compound, the “concentration required to suppress cytokine production” value [8] was 5 µM, the DSS-colitis severity (DSS-colitis; LRRK2-Tg mice) was “amelioration” and the DSS-colitis severity (DSS-colitis; wild-type mice (so in the source)) was “ameliorate”. The “autophagy (Western blotting and quantitation of LC3 puncta)” value (BMDC from LRRK2 Tg mice [9]) was “reversed inhibition of autophagy”.
For COc1cc(N2CCC(N3CCN(C)CC3)CC2)ccc1Nc1ncc(Cl)c(Nc2ccccc2S(=O)(=O)C(C)C)n1 [TAE684], the “inhibitory activities of LRRK2 kinase” value (LRRK2 kinase) is given as “inhibitory activities”.
In the case of “N-[-[[5-Chloro-2-[[2-methoxy-4-(4-morpholinyl)phenyl]amino]-4-pyrimidinyl]amino]phenyl]methanesulfonamide hydrochloride [CZC54252]”, the “inhibition of TNF-alpha, dose dependence” value (BMDC from LRRK2 Tg mice [7]) is reported as “dose dependent”, the ZymD-induced cytokine production (BMDC from LRRK2 Tg mice [7]; BMDC from LRRK2 Tg mice) is reported as “greatly reduced” and the “production of pro-inflammatory cytokine mRNAs (TNF-alpha, TL1A, IL-23p19, IL-6 and IL-1beta mRNAs)” value (BMDC from LRRK2 Tg mice [7]; [10]) is reported as “suppressed”.
